In US9072729B2, “Method for treating fibrosis and cancer with imidazolium and imidazolinium compounds” (Agency for Science, Technology and Research, priority 2008, dated 2015):

What was measured:
[1] = Stability in drinking water by NMR analysis; type: physicochemical; conditions: room temperature
AIF = AIF translocation (Western blot and HCS); type: cell-based, human; conditions: 24 hr
Method: FIG. 26. DBZIM induced cytoplasm-to-nucleus translocation of AIF. (A). DBZIM translocated AIF from cytoplasm to nucleus. HepG2 cells were treated by DBZIM for 24 hr. Cytoplasmic and nuclear proteins were fractionated using a kit from Pierce. 15 μg of proteins were resolved in 4-12% gradient PAGE-SDS gel. The target proteins were recognized by the antibody of AIF, and visualized by the ECL method. The membrane was stripped and re-probed for α-tubulin as the loading control for cytoplasmic fraction and Tata binding protein TBP for nuclear protein. (B). HLE cells were grown in 96-well plate and treated by DBZIM for 24 hr. The cells were then fixed and stained by antibody of AIF. The images were acquired and analyzed using ArrayScan VTI HCS reader (Thermal Scientific, PA, USA) and Target Activation BioApplication software. The arrows indicate the cytoplasmic and the nuclear location of the AIF staining in the control and the DBZIM, respectively. (C). Quantification of AIF staining in different subcellular compartments. […]
HLE cells cultured in 96-well plate were treated with DBZIM for 24 hr before staining and imaging. […] The cells were imaged and analyzed on ArrayScan VTI HCS reader (Thermal Scientific, PA, USA). Fluorescence intensity in the cytoplasmic and nuclear area was plotted for indication of cytoplasm to nucleus translocation. […]

MCF-7 = experiment: Proliferation assay (MTS), breast cancer cell line; type: cell-based; conditions: Homo sapiens, MCF7, 72 h; MCF-7 (breast cancer), determined at day 3
Method: Proliferation of Glioma cell lines: U87 MG and C6 under the treatment of DBZIM was examined using 3-(4,5-dimethylthiazol-2-yl)-5-(3-carboxymethoxyphenyl)-2-(4-sulfophenyl)-2H-tetrazolium (MTS) based proliferation assay kit (Promega, Wis., USA). MTS reagent was added to the control and treated cells (after 48 hr) directly and the absorbance signal was read at 490 nm using a Tecan Safire II plate reader.
The IC50 value (determined at day 3) was 50 μM for H1299 (lung cancer); 50 μM for MCF-7 (breast cancer), and 40 μM for AGS gastric cancer at day 3 (Table 3).

C6 = experiment: Caspase 3/7 activity in C6; type: cell-based, rat; conditions: C6, 2.0 mM, 6 hr
Method: FIG. 30. DBZIM inhibited cell proliferation in glioma cell line C6 (A) and U87 MG (C) and induced caspase 3/7 activity in C6 (B) and U87 MG (D). C6 or U87 cells were incubated with DBZIM of various concentrations for 48 hr for proliferation assay and 6 hr for caspase 3/7 activation assay. Proliferation was measured using MTS kit from Promega and expressed as relative cell proliferation with control group was normalized to 1. Caspase 3/7 activity was quantified using a kit from Promega and also expressed as relative caspase 3/7 activity of treated groups over control group.
Capspase 3/7 activity and lactate dehydrogenase (LDH) release were measured by Fluorometric assays (Promega Corp., WI, USA). The HCC cells were cultured in 96-well plate and treated with DBZIM of various concentrations for 6 hr before assays. For caspase 3/7 assay, medium was removed and substrate buffer was added to lyse the cell and react with caspase 3/7 to give rise to fluorescence signal which was read at Ex=485 nm and Em=530 nm on a Tecan Safire II plate reader after 1 hr incubation. The caspase 3/7 activity of sample cells with the compound treatment was expressed as relative fold change after normalizing to the control cells. The LDH assay (indicative of membrane integrity) was performed using a Kit from Promega Corp according to manufactor's instructions.

Huh7 cells = experiment: HCC xenograft model (Huh7 cells in Balb/c nude mice); type: in vivo, mouse; conditions: 2 grams/liter in drinking water, 3 weeks
Method: (§1) Balb/c Nude mice, 5-6 weeks old, were inoculated with 1×10^7 Huh7 cells in 0.2 ml volume of Matrigel/DMEM mix. Since not every mouse developed a tumor after the inoculation of HCC cells, only those with visible tumors (about 8 weeks after inoculation) were used for subsequent experiment. The tumor-bearing mice were randomly divided to the control and the treatment group. (n=3), respectively. Mice in the treatment group had free access to drinking water containing DBZIM (2 grams/liter) only, while mice in the control group had free access to Water only. The compound treatment lasted for 3 weeks. The tumor size was measured weekly, and the tumor volume was calculated using the formula: 0.52×width^2×length.
as §1, with “group” for “group.”, “compound 9 (IBN-9) at 0.6 g/l or 1.5 g/l” for “DBZIM (2 grams/liter)”, “water” for “Water”

SMILES	stability in water [1]	AIF translocation (AIF)	IC50 (MCF-7) [µM]	elevation of caspase 3/7 (C6) [folds]	decrease of body weight (Huh7 cells) [%]	reduction of tumor volume (Huh7 cells) [%]
CC(C)n1cc[n+](C(C)C)c1.F[B-](F)(F)F [DPIM, 1,3-diisopropylimidazolium tetrafluoroborate]	stable in water at room temperature condition for at least two weeks					
[Br-].c1ccc(Cn2cc[n+](Cc3ccccc3)c2)cc1 [DBZIM, 1,3-bisbenzylimidazolium bromide]		induce the translocation of AIF to the nucleus	50	3	17	40
